Test results: USRE48253E1, “Methotrexate adjuvants to reduce toxicity and methods for using the same” (Tosk, Inc., priority 2008, dated 2020)
Read-outs that look alike come from different tables or passages of the source. Values belong to the compound of their own block, whether it stands above or below them.

How the values were obtained:
CCRF-CEM cells = assay: Cell Culture Study I: MTX cytotoxicity, alamarBlue; type: cell-based, human; details: 72 hours
Experimental: In this study, CCRF-CEM cells purchased from ATCC were cultured and then 12 tubes containing approximately 10^6 cells each treated for 72 hours with media (Group1), MTX 0.03 μM (Group2), MTX+Leucovorin 1 μM (Group3), MTX+Leucovorin 10 μM (Group4), MTX+Leucovorin 100 μM (Group5), MTX+TK-112690 1 μM (Group6), MTX+TK-112690 10 μM (Group7) and MTX+TK-112690 100 μM (Group8). […] Viability was measured as percent reduction of alamarBlue absorbance.
The tumor cell line CCR-CEM (human T-cell acute lymphoblastic leukemia) is obtained from American Type Culture Collection (CRL-1593.2) and cultured in accordance with the product information sheet with the following exceptions: 55.3 cm^2 Petri dishes are used instead of 75 cm^2 culture flasks, and 1% penicillin-streptomycin solution (HyClone SV30010) and 1% GlutaMAX™ (Gibco 35050) are added to the culture medium.
TK-112690, the representative 2,2′-anhydropyrimidine test article, is dissolved in 40% DMSO, sterile filtered then diluted with sterile distilled water to obtain initial working solutions of 10, 100 and 1000 μM. In testing, a 100 fold dilution is made in culture media to give final assay concentrations of 0.1, 1.0 and 10.0 μM. MTX (SAFC Biosciences M8407) is dissolved in sterile distilled water and 5 N NaOH then sterile filtered. The final pH of the stock solution is 7.8 and working solutions are made with sterile distilled water for final assay concentrations of 30, 3.0, 0.3, 0.03 and 0.003 μM. Leucovorin (Sigma F-7878) is dissolved in sterile distilled water, sterile filtered and diluted with sterile distilled water for final assay concentrations of 0.1, 1.0 and 10.0 μM.
Aliquots of 100 μL of cell suspension are plated in 96 well microtiter plates (Corning costar 3595) and placed in an atmosphere of 5% CO2 at 37° C. (Fisher Scientific Isotemp 3500 CO2 Incubator). After 24 hours, 100 μL of growth medium [RPMI-1640 w/L-glutamine (Cambrex 12-702Q) fortified with sodium pyruvate (HyClone SH30239.01), fetal bovine serum (SAFC Biosciences 12107C) and HEPES buffer (Gibco 15630)] and 2 μL of test solution or vehicle are added respectively per well and the plates incubated for an additional 72 hour incubation. MTX is evaluated at concentrations of 0.003, 0.03, 0.30 and 3.0 μM alone or in combination with either a 2,2′-anhydropyrimidine test article or Leucovorin at concentrations of 0.1, 1.0, 10.0 μM. At the end of incubation, the efficacy of anti-cell proliferation is determined by optical absorbance at λ=570 and 600 nm [Spectramax 250 (Molecular Devices)] in accordance with the standard alamarBlue™ (Biosource) protocol.
Group 1 is the cell control (media treated). Group 2 corresponds to cells treated with 0.03 μM MTX. Group 3 are cells treated with 1.0 μM Leucovorin. Group 4 are cells treated with 0.1 μM Leucovorin. Group 5 are cells treated with 10 μM TK-112690. Group 6 are cells treated with MTX+10 μM TK-112690. Group 7 are cells treated with MTX+1.0 μM TK-112690. Group 8 MTX+0.1 μM TK-112690.

[1] = target: mouse small intestinal UPase enzyme (Mus musculus, UniProt P52624); assay: UPase inhibition in mouse small intestinal tissue homogenate (HPLC of uracil); type: biochemical
Experimental: A range of TK-112690 doses were studied for the their ability to prevent metabolic breakdown of uridine through the in vitro inhibition of mouse and human small intestinal UPase enzyme. UPase activity was determined by HPLC analysis using UV detection of uracil concentration (UPase catabolizes uridine into uracil and ribose-1-phosphate). The UPase enzyme material was prepared from homogenized mouse and human being small intestinal tissue. TK-112690 was dissolved in water (50 mg/ml) and analyzed for UPase inhibition in aqueous solution containing 5 mM uridine, 0.01 M Tris, 0.01 M phosphate, 1 mM EDTA, and 1 mM DTT. Reactions were performed at 37° C. at pH of 7.3.
The aim of this study was to evaluate TK-112690 […] as an inhibitor of uridine phosphorylase (UPase) enzyme activity. The range of TK-112690 doses studied for ability to prevent metabolic breakdown of uridine, through the in vitro inhibition of mouse and human small intestinal UPase enzyme, was 0, 0.1, 0.5, 1, 5, 10, 50, 100, 500, 1000, 5000 and 10000 μM). Detection of UPase activity was determined by HPLC analysis using UV detection of uracil concentration (UPase catabolizes uridine into uracil and ribose-1-phosphate).
The UPase enzyme material was prepared from homogenized mouse and human being small intestinal tissue. TK-112690 was dissolved in water (50 mg/ml) and analyzed for UPase inhibition in aqueous solution containing 5 mM uridine, 0.01 M Tris, 0.01 M phosphate, 1 mM EDTA, and 1 mM DTT. Reactions were performed at 37° C. at pH of 7.3.
TK-11260 inhibition of mouse and human UPase was analyzed by reverse phase HPLC using UV detection. HPLC analysis was performed at ambient temperature with a Water 2695 Alliance system equipped with a C18 ECONOSIL 5 U ALLtech column. 20 μl of UPase reaction samples were auto-injected onto column. Mobile phase consisted of water eluting for first 2.5 ml and acetonitrile gradient to 100% in 12.5 ml (flow rate 0.5 ml/min). The outlet fluent was monitored by UV absorption in the range of 240-320 nm. UPase enzymatic activity was based on the AUC of the uracil peaks.

Drosophila melanogaster = assay: Fly Study I: protection from MTX-induced lethality; type: in vivo; details: with MTX 0.4 mg; TK-112690 0.005 to 0.1 mg
Experimental: In this study, Drosophila melanogaster eggs (50 eggs per vial) were treated with either 0.005 mg TK-112690+0.4 mg MTX (Group 1), 0.01 mg TK-112690+0.4 mg MTX (Group 2), 0.04 mg TK-112690+0.4 mg MTX (Group 3), 0.1 mg TK-112690+0.4 mg MTX (Group 4), 0.4 mg MTX alone (Group 5) or saline blank (Group 6). Two vials of eggs for each dose group were evaluated for viability (viable flies plus pupae).
The efficacy of cancer chemotherapy can be improved if agents are available to reduce the adverse events associated with treatment with cytotoxic agents. To this end, Drosophila melanogaster (commonly know as the fruit fly) is an ideal organism to screen chemical compounds for such side-effect-reducing agents. This study is aimed at finding a dose of a 2,2′-anhydropyrimidine test article that protects against MTX-induced lethality in insects.
Increasing amounts of a 2,2′-anhydropyrimidine test article (typically 0.03 to 0.1 mg) are mixed in an aqueous solution with 0.3 (or 0.4) mg MTX. Four milliliters (mL) of a 2,2′-anhydropyrimidine test article+MTX solutions are added to an appropriate amount of instant fly medium. Fruit fly eggs are added to a 2,2′-anhydropyrimidine test article+MTX treated medium and incubated for up to 31 days. After the 31 day incubation, each assay is scored by the number of mature fly and pupae per vial.
The assays are set up in clear sterile polystyrene narrow diameter vials from Applied Scientific (Hampton, N.H.). Vials are stored in trays and incubated in a darkened 25° C. incubator.
Reagents and materials used are: 50 mg/mL MTX in H2O (pH 8), 20 mg/mL of the 2,2′-anhydropyrimidine test article in H2O, water, sterile polystyrene narrow diameter vials from Applied Scientific, Instant Drosophila Food Medium, Oregon-R Drosophila melanogaster, 25° C. incubator, and 15 mL polystyrene conical tubes
Each assay is performed in a separate fly vial. […] Pre-measured amounts of instant drosophila medium are added to each assay to achieve optimal hydration level. […] Assays are scored by the number of dead pupae or adult flies per vial.

[2] = Table 3, murine UPase, test method of Experiment IX, read-out: UPase IC50

mouse small intestinal UPase enzyme, sequence (P52624 whole entry, looked up): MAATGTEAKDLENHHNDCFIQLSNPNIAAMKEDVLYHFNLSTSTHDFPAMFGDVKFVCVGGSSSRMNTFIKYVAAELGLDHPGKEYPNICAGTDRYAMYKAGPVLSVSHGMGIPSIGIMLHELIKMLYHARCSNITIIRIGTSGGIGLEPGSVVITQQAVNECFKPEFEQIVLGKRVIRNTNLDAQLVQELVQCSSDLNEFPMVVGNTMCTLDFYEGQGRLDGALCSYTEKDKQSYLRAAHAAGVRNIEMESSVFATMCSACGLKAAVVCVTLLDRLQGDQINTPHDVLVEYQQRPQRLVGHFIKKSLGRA

Compound: Nc1nc2c(c(=O)[nH]1)N(C=O)C(CNc1ccc(C(=O)N[C@@H](CCC(=O)O)C(=O)O)cc1)CN2 (some centres unmarked) [Leucovorin]
effect on MTX cytotoxicity (viability, alamarBlue) (CCRF-CEM cells; combined with MTX 0.03 μM): statistically different than Group 2
viability, agent alone vs control (CCRF-CEM cells; without MTX): not statistically different than control

Compound: COCc1cn2c(nc1=O)O[C@H]1[C@H](O)[C@@H](CO)O[C@H]12 [TK-000009]
protection against MTX-induced lethality in the Fly model (Drosophila melanogaster): active
IC50 [1, 2]: < 100 µM

Compound: CC(=N)OCc1cn2c(nc1=O)O[C@H]1[C@H](O)[C@@H](CO)O[C@H]12 [TK-000010]
IC50 [1, 2]: > 100 µM

Compound: Cc1cn2c(nc1=O)O[C@H]1[C@H](O)[C@@H](CN=[N+]=[N-])O[C@H]12 [TK-000011]
IC50 [1, 2]: > 100 µM

Compound: Cc1cn2c(nc1=O)O[C@H]1C(O)[C@@H](CF)O[C@H]12 (some centres unmarked) [TK-000015]
IC50 [1, 2]: > 100 µM

Compound: Cc1ccc(SCc2cn3c(nc2=O)O[C@H]2C(O)[C@@H](CO)O[C@H]23)cc1 (some centres unmarked) [TK-000016]
IC50 ([1]; 5 mM uridine, 37° C., pH 7.3, read-out: IC50, mouse small intestinal (murine) UPase): < 100 µM

The next lines start with the values.

IC50 [1, 2]: < 100 µM
Compound: O=c1nc2n(cc1NCc1ccccc1)[C@@H]1O[C@H](CO)[C@@H](O)[C@@H]1O2 [TK-000006]

IC50 [1, 2]: < 100 µM
Compound: CCOCc1cn2c(nc1=O)O[C@H]1[C@H](O)[C@@H](CO)O[C@H]12 [TK-000007]

IC50 [1, 2]: < 100 µM
Compound: O=c1nc2n(cc1COCc1ccccc1)[C@@H]1O[C@H](CO)[C@@H](O)[C@@H]1O2 [TK-000008]
